According to ChEMBL document CHEMBL4823285, “Synthesis and evaluation of antimycobacterial activity of riboflavin derivatives” (Bioorg Med Chem Lett, 2021):
≈ marks a conversion by molar mass, not a printed value. Calls of active or inactive are those of the source. The calls are words filed in the database; no cut-off is given here.

Experiments:
[1] = tested on: Mycobacterium tuberculosis; assay: Antimycobacterial activity against Mycobacterium tuberculosis H37Rv assessed as inhibition of visible growth […]; type: functional
THP-1 = assay: Cytotoxicity against human THP-1 cells assessed as cell viability measured after 96 hrs by MTT assay; type: cell-based; conditions: THP-1, 96 h
[2] = Selectivity index, ratio of MIC99 for Mycobacterium tuberculosis H37Rv to IC50 for human THP-1 cells; type: functional
Staphylococcus aureus [3] = assay: Antibacterial activity against Staphylococcus aureus assessed as inhibition of bacterial growth; type: functional
Bacillus subtilis [4] = assay: Antibacterial activity against Bacillus subtilis assessed as inhibition of bacterial growth; type: functional
FMN riboswitch = assay: Binding affinity to Lactobacillus plantarum NCDO 1752 FMN riboswitch at 150 nM measured by fluorescence assay; type: nucleic-acid assay; conditions: Lactiplantibacillus plantarum
Bacillus subtilis [5] = assay: Antibacterial activity against Bacillus subtilis assessed as inhibition of bacterial growth at 100 to 200 uM; type: functional; conditions: dose 100-200 µM
Staphylococcus aureus [6] = assay: Antibacterial activity against Staphylococcus aureus assessed as inhibition of bacterial growth at 100 to 200 uM; type: functional; conditions: dose 100-200 µM

SMILES | MIC99 [1] [µM] | IC50 (THP-1) [µM] | Selectivity Index [2] | MIC (Staphylococcus aureus [3]) [µM] | MIC (Bacillus subtilis [4]) [µM] | Kb (FMN riboswitch) | inhibition (Staphylococcus aureus [3]) | inhibition (Bacillus subtilis [4]) | inhibition (INH) (Bacillus subtilis [5]) [%] | inhibition (INH) (Staphylococcus aureus [6]) [%]
CCCCCCCCCCCC(=O)OC[C@H](O)[C@H](O)[C@H](O)Cn1c2nc(=O)[nH]c(=O)c-2nc2cc(C)c(C)cc21 | > 50 | 50 | 1 |  |  |  |  |  |  | 
CCCCCCCCCCCC(=O)OC[C@H](OC(=O)CCCCCCCCCCC)[C@H](OC(=O)CCCCCCCCCCC)[C@@H](Cn1c2nc(=O)[nH]c(=O)c-2nc2cc(C)c(C)cc21)OC(=O)CCCCCCCCCCC | > 50 | > 50 | 1 | 100 (≈ 111 µg/mL) | 100 (≈ 111 µg/mL) |  |  |  |  | 
CCCCCC(=O)OC[C@H](OC(=O)CCCCC)[C@H](OC(=O)CCCCC)[C@@H](Cn1c2nc(=O)[nH]c(=O)c-2nc2cc(C)c(C)cc21)OC(=O)CCCCC | 50 (≈ 38.4 µg/mL) | > 50 | >1 |  |  |  |  |  |  | 
CC(=O)OC[C@H](OC(C)=O)[C@H](OC(C)=O)[C@@H](Cn1c2nc(=O)[nH]c(=O)c-2nc2cc(C)c(C)cc21)OC(C)=O | 25 (≈ 13.6 µg/mL) | 25 | 1 |  |  |  |  |  |  | 
Cc1cc2nc3c(=O)[nH]c(=O)nc-3n(CC(O)O)c2cc1C | 6.25 (≈ 1.89 µg/mL) | > 100 | >10.7 |  |  | 5.42 10^5/M |  |  |  | 
Cc1cc2nc3c(=O)[nH]c(=O)nc-3n(CCO)c2cc1C | > 50 | > 50 | 1 |  |  |  |  |  |  | 
CC(=O)OC[C@H](OC(C)=O)[C@H](OC(C)=O)[C@@H](Cn1c2nc(=O)n(C)c(=O)c-2nc2cc(C)c(C)cc21)OC(C)=O | 12.5 (≈ 6.98 µg/mL) | > 100 | >2 |  |  |  |  |  |  | 
CCCCCCCCCCCC(=O)OC[C@H](OC(=O)CCCCCCCCCCC)[C@H](OC(=O)CCCCCCCCCCC)[C@H](O)Cn1c2nc(=O)[nH]c(=O)c-2nc2cc(C)c(C)cc21 | > 50 | 50 | 1 |  |  |  | Active | Active |  | 
CCCC(=O)OC[C@H](OC(=O)CCC)[C@H](OC(=O)CCC)[C@@H](Cn1c2nc(=O)[nH]c(=O)c-2nc2cc(C)c(C)cc21)OC(=O)CCC | 50 (≈ 32.8 µg/mL) | 100 | 2 |  |  |  |  |  | >90 | >90
CCCCCC(=O)OC[C@H](OC(=O)CCCCC)[C@H](OC(=O)CCCCC)[C@H](O)Cn1c2nc(=O)[nH]c(=O)c-2nc2cc(C)c(C)cc21 | 25 (≈ 16.8 µg/mL) | > 100 | >4 |  |  |  |  |  |  | 
NNC(=O)c1ccncc1 [ISONIAZID] | 0.78 (≈ 0.107 µg/mL) | 100 |  |  |  |  |  |  |  | 
CCCC(=O)OC[C@H](OC(=O)CCC)[C@H](O)[C@H](O)Cn1c2nc(=O)[nH]c(=O)c-2nc2cc(C)c(C)cc21 | 25 (≈ 12.9 µg/mL) | > 100 | >4 |  |  |  |  |  | >90 | >90
CCCC(=O)OC[C@H](OC(=O)CCC)[C@H](OC(=O)CCC)[C@H](O)Cn1c2nc(=O)[nH]c(=O)c-2nc2cc(C)c(C)cc21 | 50 (≈ 29.3 µg/mL) | > 100 | >2 |  |  |  |  |  | >90 | >90
CCCCCCCCCCCC(=O)OC[C@H](OC(=O)CCCCCCCCCCC)[C@H](O)[C@H](O)Cn1c2nc(=O)[nH]c(=O)c-2nc2cc(C)c(C)cc21 | > 50 | 25 | <0.5 |  |  |  |  |  |  | 
